# Key:
# Type in all cases: cell-based
# [1] = tested on: p21 in TP53−/− HCT-116 cells; assay: Western blots of p21
# NCI-H520 = assay: Panel 2 high-content cell screen; details: Homo sapiens, 72 h, cell number
# Protocol: (§1) To support clinical development and identify potential biomarkers of tumor sensitivity or resistance, two large cancer cell line panels (Panel 1, N=653 (McDermott et al. (2007) PNAS 104:19936-19941); Panel 2, N=240 (O'Day et al. (2010) Fourth AACR International Conference on Molecular Diagnostics in Cancer Therapeutic Development)) were treated with MLN4924 and cell viability data (IC50, EC50, and POC—Percentage of Control) were generated.
# (§2) Panel 2 (Ricerca Biosciences, Inc., Bothell, Wash.). MLN4924 was added in half-log dilutions for 10 concentrations and treated for 72 hours. High-content cell screening by fluorescence microscopy included image analysis to generate several types of data. Results included EC50 values (after measurement of cell numbers, the EC50 concentration was calculated from the inflection point of a curve of percent of control (POC) against log of MLN4924 concentration), IC50 values (from the POC-log MLN4924 plot, IC50 is the concentration at 50% maximal possible response), apoptosis (measurement of activation of caspase 3 plotted against log of MLN4924 concentration, determined as the concentration for >5 fold induction), and mitotic activity (determined by measuring the fold increase of phospho-histone 3). A comparison of EC50 to IC50 (FIG. 3) allowed assignment of cell lines to sensitive, insensitive or resistant. Final identification of a cell line as sensitive or resistant was based on the EC50 values. The cutoff for sensitivity is a median EC50 of less than the median value of all POC's recorded in the panel (<0.36), borderline sensitivity was associated with median EC50 of 0.36 to 1.67 and insensitive or resistant cell lines were identified by EC50 greater than the 3rd quartile of all POC's in the panel (>1.67).
# SK-OV-3 = assay: Panel 2 high-content cell screen; details: Homo sapiens, 72 h, cell number
# Protocol: as §1, §2
# SW 1116 = assay: Panel 2 high-content cell screen; details: Homo sapiens, 72 h, cell number
# Protocol: as §1, §2
# MKN45 = assay: Panel 1 cell viability screen; details: SMAD4 mutant
# Protocol: as §1
# (§3) Panel 1 (McDermott et al., supra). The cell lines were exposed to three MLN4924 concentrations (20 nM, 200 nM, and 2 μM) for 72 hours. Viability, i.e., cell number, was quantified by measuring fluorescence of a cell-permeant nucleic acid stain. Mean of triplicate values for each sample were taken and compared to DMSO control to calculate percentage of control. In the results, control or no activity value is given a value of about 1, sensitivity is indicated by a value less than 1, with 0 as death of the entire cell population and resistance indicated by a value greater than 1. A continuum of viability values was obtained for each concentration, so some values were selected as cut-offs for final determination of sensitivity or resistance. For example, median POC values of less than the median value of all POC's recorded in the panel (<0.34) indicated sensitivity, values of 0.34 to 0.75 indicated borderline sensitivity, values greater than the 3rd quartile of all POC's in the panel (>0.75) insensitivity or resistance. […] Final judgment of cell line as sensitive, insensitive or resistant was determined by its viability at 2 μM.
# SW 1463 = assay: Panel 1 cell viability screen; details: SW1463; FBXW7 mutant
# Protocol: as §1, §3
# PANC-08-13 = assay: Panel 1 cell viability screen; details: SMAD4 mutant
# Protocol: as §1, §3
# UMC-11 = assay: Panel 1 cell viability screen; details: SMAD4 mutant
# Protocol: as §1, §3
# MDA-MB-231 = assay: Panel 1 cell viability screen; details: NF2 mutant
# Protocol: as §1, §3
# COLO-678 = assay: Panel 1 cell viability screen; details: SMAD4 mutant
# Protocol: as §1, §3
# RCM-1 = assay: Panel 1 cell viability screen; details: FBXW7 mutant
# Protocol: as §1, §3
# COCM1 = assay: Panel 1 cell viability screen; details: CoCM-1; SMAD4 mutant
# Protocol: as §1, §3
# CAPAN-1 = assay: Panel 1 cell viability screen; details: SMAD4 mutant
# Protocol: as §1, §3
# CFPAC-1 = assay: Panel 1 cell viability screen; details: SMAD4 mutant
# Protocol: as §1, §3
# S-117 = assay: Panel 1 cell viability screen; details: NF2 mutant
# Protocol: as §1, §3
# MKN1 = assay: Panel 1 cell viability screen; details: FBXW7 mutant
# Protocol: as §1, §3
# AsPC-1 = assay: Panel 1 cell viability screen; details: FBXW7 mutant
# Protocol: as §1, §3
# BxPC-3 = assay: Panel 1 cell viability screen; details: SMAD4 mutant
# Protocol: as §1, §3
# HT29 = assay: Panel 1 cell viability screen; details: HT-29; SMAD4 mutant
# Protocol: as §1, §3
# SW620 = assay: Panel 1 cell viability screen; details: SMAD4 mutant
# Protocol: as §1, §3
smiles,measurement,setting,value
"NS(=O)(=O)OC[C@@H]1C[C@@H](n2ccc3c(N[C@H]4CCc5ccccc54)ncnc32)C[C@@H]1O [MLN4924, ((1S,2S,4R)-4-{4-[(1S)-2,3-dihydro-1H-inden-1-ylamino]-7H-pyrrolo[2,3-d]pyrimidin-7-yl}-2-hydroxycyclopentyl)methyl sulphamate]",p21 (Western blots),[1],still up-regulated
same,EC50,NCI-H520,0.261 µM
same,EC50,SK-OV-3,≥ 10 µM
same,EC50,SW 1116,≥ 10 µM
same,Phenotype,MKN45,insensitive
same,Phenotype,SW 1463,resistant
same,Phenotype,PANC-08-13,resistant
same,Phenotype,UMC-11,insensitive
same,Phenotype,MDA-MB-231,insensitive
same,Phenotype,COLO-678,resistant
same,Phenotype,RCM-1,resistant
same,Phenotype,COCM1,resistant
same,Phenotype,CAPAN-1,sensitive?
same,Phenotype,CFPAC-1,sensitive?
same,Phenotype,S-117,resistant
same,Phenotype,MKN1,insensitive
same,Phenotype,AsPC-1,resistant
same,Phenotype,BxPC-3,insensitive
same,Phenotype,HT29,insensitive
same,Phenotype,SW620,insensitive
